Experimental findings from patent US20030138946A1 are described below.

The test system of one test is B3/CD8 T-cell hybridoma. The experiment in a line: Antigen presentation assay with B3/CD8 T-cell hybridoma (IL-2 via CTLL 3H thymidine). The class given is cell-based, murine. The settings on record: peptide added to culture medium or protein osmotically loaded. How it is done:
Osmotic loading of SC2 and 3T3 cells with ovalbumin protein was carried out as described by Moore, et al., Cell 54: 777-785 (1988). The assay procedure is as follows. In a 96-well dish, 1×10^5 Drosophila cells (with or without peptide/protein loaded) or 3T3 cells were cocultured with 1×10^5 B3/CD8 T-cell hybridoma cells in 200 μl of RPMI media supplemented with 10% fetal bovine serum. After 24 hours of incubation, 100 μl of the supernatant from these cultures was added to 100 μl of RPMI containing 5,000 CTLL cells. The cells were cocultured for 24 hours at 37° C. when 1 uCi of ^3H thymidine (Amersham) was added. After a further incubation of 15 hours at 37° C., the incorporation of radiolabel into the CTLL cells was determined by scintillation counting.
Assays conducted with murine MHC also verified that the insect cells are capable of loading peptide onto the Class I molecules. Cells expressing as few as 200-500 MHC molecules containing a particular antigen can be detected by a T-cell. […] Upon antigenic stimulation, B3/CD8 produces IL-2, measured by ^3H thymidine incorporation in IL-2-dependent T-cell line CTLL (Gillis, et al., J. Immunol. 120: 2027 91978)). Thus, by measuring the amount of IL-2 produced, one can assay for T-cell recognition. […]

A further test relates to HLA B27. In words: Peptide-induced thermostabilization of HLA B27 on Drosophila cells (W6/32 cytofluorimetry). The class given is cell-based, human. As for the experimental part:
Twenty-four hours prior to FACS analysis, CuSO4 is added to the stably transfected S2 cells (3-4×10^6 cells/ml) to a final concentration of 1 mM, thereby “switching on” expression from the transfected genes. Cells are plated out in 24-well cluster dishes (2 ml per well). Eight hours prior to FACS analysis, the CuSO4 medium is replaced with fresh medium (1 ml) with or without peptide at a concentration of 50 μg/ml. 37° C. temperature challenges are carried out by transferring the dishes onto a flat surface in a 37° C. room at various time intervals prior to harvesting the cells for analysis.
To analyze surface expression of Class I MHC on the S2 cells, aliquots of cells (5×10^5) are transferred into tubes on ice, collected by centrifugation (1,000×g for 4 minutes), resuspended in 3 ml of PBS/1% BSA, 0.02% sodium azide, collected by centrifugation and resuspended in PBS/BSA (0.5 ml) containing the appropriate primary antibody (ascites fluids Y3, 28:14:8S, 30.5.7, W6/32, diluted 1:200). Rabbit antisera are diluted 1:500 and B22.293 hybridoma supernatant is used directly. After a one hour incubation on ice, cells are washed twice in 3 ml of PBS/BSA and resuspended in 0.5 ml of PBS/BSA containing FITC labeled secondary antibody (Cappell, Durham, N.C.) and 1 ng/ml propidium iodide. […] Samples are then analyzed by FACS 440 (Becton Dickinson). […]

For the substance “ovalbumin protein: ovalbumin (Sigma Chem. Co.) osmotically loaded into the cells (EQLESIINFEKLTEWTSSNVMEER)”, the “T-cell recognition (IL-2 response) of K^b Drosophila cells” value with B3/CD8 T-cell hybridoma is reported as “no recognition”.
Turning to ILKEPVHGV [HIV POL peptide], in the test with HLA B27, the “thermostabilization of HLA B27 surface expression” value is “not B27”.
Still for that read-out and setting: with FRIGCRHSR [HIV Vpr peptide] the entry was “stabilizes B27”.
